Measured values: patent US20240246903A1, “INDANONE AND TETRALONEKETO OR HYDROXYL OXIMES AS CANCEL THERAPEUTICS” (Board of Regents, The University of Texas System, priority 2021, published 2024)

Test system: GBM cells
Assay: GBM cell viability (MTT assay)
Format: cell-based
Conditions: FIG. 3, read-out: concentration that reduces cell viability by 50%
Method: To assess, the antitumor activity of the new ERβ agonist compounds, GBM cells were assessed for viability using a commercially available MTT assay. Briefly, the assay determines the number of viable cells in culture by […], which indicates the presence of metabolically active cells. Previously described agonists such as LY was able to reduce viability by 50% with concentration of 10 μM or greater. The new compounds described in this disclosure have higher potency than existing compounds and some reduce cell viability by 50% at concentrations even at 3 μM (FIG. 3).

Oc1ccc([C@@H]2Oc3ccc(O)cc3[C@@H]3CCC[C@@H]32)cc1 [LY, (3aS,4R,9bR)-4-(4-hydroxyphenyl)-1,2,3,3a,4,9b-hexahydrocyclopenta[c]chromen-8-ol] was tested, and the IC50 was ≥ 10 µM.
